This is an account of results in ChEMBL document CHEMBL1201862, “PubChem BioAssay data set” (2004).

What all share (assay): NCI tumour cell line growth inhibition, 48 h
Experiment [1] deals with 786-0.
Experiment [2] has as its system A498.
Experiment [3] deals with CCRF-CEM.
The subject of experiment [4] is COLO 205.
For experiment [5], the system named is HCT-116.
Experiment [6] concerns HOP-62.
The test system of experiment [7] is K562.
Experiment [8] concerns LOX IMVI.
The test system of experiment [9] is NCI-H522.
In experiment [10] the test system is OVCAR-5.
The subject of experiment [11] is RXF 393.
Experiment [12] has as its system SF-268.
The subject of experiment [13] is SF-295.
Experiment [14] deals with SK-MEL-2.
Experiment [15] has as its system SK-OV-3.
For experiment [16], the system named is U-251.

Counter-ions that a name gives are not always drawn.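 48-hour exposure; five concentrations; linearly interpolated endpoints. GI50 marks 50% less growth.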 Active and inactive are the calls of the source. Rule as the data show it: active = GI50 up to about 1.1 µM and inactive = higher.

As for `CC(=O)OCC(OC(C)=O)C(OC(C)=O)C(OC(C)=O)C(=O)CNn1c(-c2ccccc2Cl)nc2ccccc2c1=O` (stereo not given), the GI50 was > 100 µM (inactive) in experiment [1]; > 100 µM (inactive) in [2]; 84.3 µM (inactive) in [3]; > 100 µM (inactive) in experiment [4]; > 100 µM (inactive) in experiment [5]; > 100 µM (inactive) in [6]. Also, the GI50 in [7], in [8], in [9], in [10], in [11] and in experiment [12] was > 100 µM (inactive) throughout. Moreover, the GI50 in experiment [13], in [14], in [15] and in experiment [16] was > 100 µM (inactive) each time.

Consider `COC(=O)C1C(=O)NC2(C)CC1c1ccccc1O2` (stereo not given), for which the GI50 is > 100 µM (inactive) in experiment [1]; > 100 µM (inactive) in experiment [2]; > 100 µM (inactive) in experiment [3]; > 100 µM (inactive) in experiment [5]; > 10 µM (inactive) in experiment [6]; > 100 µM (inactive) in experiment [7]. Besides, the GI50 in experiment [8], in experiment [9], in experiment [10], in experiment [11], in experiment [12] and in [13] was > 100 µM (inactive) each time. In addition, the GI50 in [14], in experiment [15] and in [16] was > 100 µM (inactive) each time.

As to `O=C(CC1(O)C(=O)Nc2c(Cl)cc(Cl)cc21)c1ccc(Br)cc1` (stereo not given), the GI50 is 13.2 µM (inactive) in experiment [1]; > 49.2 µM (inactive) in experiment [2]; 14.9 µM (inactive) in [3]; > 40.7 µM (inactive) in experiment [4]; 17.5 µM (inactive) in experiment [5]; 20.2 µM (inactive) in [6]. In addition, the GI50 is 24.5 µM (inactive) in [7]; 22.5 µM (inactive) in [8]; 16.6 µM (inactive) in [9]; 17.2 µM (inactive) in experiment [10]; 16 µM (inactive) in experiment [11]; 16.4 µM (inactive) in experiment [12]. The GI50 in [13] was 29.5 µM (inactive); in [14] it was > 41.1 µM (inactive); in experiment [15], 27 µM (inactive); in experiment [16], 13.4 µM (inactive).

Take `CC1CC2(CCC1OCc1ccccc1)OCCO2` (stereo not given): the GI50 in experiment [1], in [2], in experiment [3], in experiment [4], in experiment [5] and in experiment [6] was > 100 µM (inactive) in each case. The GI50 in experiment [7], in [8], in [9], in experiment [11], in experiment [13] and in experiment [14] was > 100 µM (inactive) throughout. Also, the GI50 in [15] and in experiment [16] was > 100 µM (inactive) each time.

Take `CC(=O)O[C@H]1CCC2[C@@H]3CCC4Nc5[nH]ncc5C[C@]4(C)C3CC[C@@]21C` (stereo not given in full): the GI50 in experiment [1] was > 100 µM (inactive); in experiment [2], > 100 µM (inactive); in experiment [3], 22.4 µM (inactive); in [4], 37.2 µM (inactive); in [5], 64.9 µM (inactive); in [6], > 100 µM (inactive). Besides, the GI50 in experiment [7] is 36.3 µM (inactive); in experiment [8], 0.405 µM (active); in experiment [9] it was 21.4 µM (inactive); in experiment [10], > 100 µM (inactive); in experiment [11], > 100 µM (inactive); in experiment [12], > 100 µM (inactive). Also, the GI50 in [13] was > 100 µM (inactive); in [14] it was > 100 µM (inactive); in [15], > 100 µM (inactive); in experiment [16], 80.2 µM (inactive).

In the case of `CNC(=O)NCCCCC(NC(C)=O)C(=O)NCc1ccccc1` (stereo not given), the GI50 in [1], in experiment [2], in experiment [3], in [4], in experiment [5] and in [6] was > 100 µM (inactive) each time. In addition, the GI50 in [7] was > 10 µM (inactive); in [8] it was > 100 µM (inactive); in [9], > 100 µM (inactive); in experiment [10], > 100 µM (inactive); in [11], > 100 µM (inactive); in experiment [12], > 100 µM (inactive). Also, the GI50 in experiment [13], in experiment [14], in experiment [15] and in [16] was > 100 µM (inactive) throughout.

Consider `CC(=O)CC(=O)OC1CC(C)CCC1C(C)C` (stereo not given), for which the GI50 was > 100 µM (inactive) in experiment [1]; > 100 µM (inactive) in [2]; 11.7 µM (inactive) in experiment [3]; 96.2 µM (inactive) in [4]; 13.5 µM (inactive) in [5]; 33.9 µM (inactive) in [6]. In addition, the GI50 in experiment [7] was 16 µM (inactive); in experiment [8], 47.6 µM (inactive); in experiment [9], 39.7 µM (inactive); in [10] it was > 100 µM (inactive); in experiment [11], 72.4 µM (inactive); in experiment [12] it was 45.7 µM (inactive). For the same molecule, the GI50 was 80.7 µM (inactive) in [13], 28.4 µM (inactive) in [14], > 100 µM (inactive) in [15] and 47 µM (inactive) in experiment [16].

With `CCOC(=O)CC(C)C1(C=O)CCCCC1=O` (stereo not given), the GI50 was 31 µM (inactive) in experiment [1]; > 100 µM (inactive) in experiment [2]; 41.8 µM (inactive) in experiment [3]; 29.3 µM (inactive) in experiment [4]; > 100 µM (inactive) in experiment [5]; > 100 µM (inactive) in [6]. Also, the GI50 was > 100 µM (inactive) in experiment [7]; 18.3 µM (inactive) in experiment [8]; 90.4 µM (inactive) in experiment [9]; > 100 µM (inactive) in [10]; > 100 µM (inactive) in experiment [11]; > 100 µM (inactive) in [12]. The GI50 in experiment [13], in experiment [14], in [15] and in experiment [16] was > 100 µM (inactive) each time.

On to `CC(NC(C)(C)C)C(=O)c1cccc(Cl)c1` (stereo not given) [BUPROPION HYDROCHLORIDE], for which the GI50 in [1], in experiment [2], in experiment [3], in [4], in [5] and in experiment [6] was > 100 µM (inactive) each time. The GI50 in experiment [7], in experiment [8], in experiment [9], in [11], in experiment [12] and in experiment [13] was > 100 µM (inactive) each time. Besides, the GI50 in experiment [14], in experiment [15] and in experiment [16] was > 100 µM (inactive) throughout.
